Source: US6407058B1, “Modifying the permeability of physiological barriers” (Eisai Co., Limited, priority 1996, dated 2002)

Key:
p100/p120 [1] = test: p100/p120 electrophoretic mobility, human umbilical vein endothelial cells (HUVECs); format: cell-based; conditions: HUVEC
p100/p120 [2] = test: p100/p120 electrophoretic mobility (band shift) by immunoblotting, MDCK I cells; format: cell-based; conditions: MDCK I; for block of PDB-induced p100/p120 band shift: pretreatment 5 minutes (bisindolylmaleimide I or V 2.5 μM, Ro 31-8425 5 μM), then 200 nM PDB 30 minutes; for reversal of PDB-induced p100/p120 band shift: 200 nM PDB 30 minutes, then 2.5 μM inhibitor added in presence of PDB
Experimental: The migration of the cellular proteins p100 and p120 during electrophoresis is increased following PDB-treatment of MDCK I cells. PDB (phorbol-12,13-dibutyrate) is a pharmacological activator of protein kinase C. MDCK I cells are a kidney derived epithelial cell line, with particularly well developed junctional complexes. Cells treated for 30 minutes with either 200 nM PDB (+) or vehicle (−) were then lysed into Laemmli sample buffer, and separated by electrophoresis using 6% acrylamide gels. Proteins were transferred to nitrocellulose and probed with antibodies to p100/p120, and then reprobed with E-cadherin and paxillin antibodies.
(§1) MDCK strain I and II cells were provided by Barry Gumbiner (memorial Sloan-Kettering Cancer Center, NY). LLC-PK1 and Caco-2 cells were obtained from the European Collection of Animal Cell Cultures. All cells were maintained at 37° C. under 5% CO2 in humidified air. MDCK strain I and II cells were maintained in MEM containing 10% FCS, 100 U/ml penicillin, 100 μg/ml streptomycin and 2 mM L-glutamine. Caco-2 cells were maintained in MEM containing 15% FCS, 1% non-essential amino acids and 1 μg/ml bovine insulin (Sigma I-6634). LLC-PK1 cells were grown in M199 (Gibco), 10% FCS, 100 U/ml penicillin, 100 μg/ml streptomycin and 2 mM L-glutamine. For whole cell lysate analysis, 10^5 cells were plated on 6.5 mm diameter, 0.4 μm, polycarbonate Transwell filters from Costar, in 0.25 ml of medium. The basolateral chamber contained 0.75 ml of medium. For immunoprecipitation, 5×10^5 cells were plated onto 24 mm Transwell filters, in 2 ml of medium, with 3 ml of medium in the lower chamber. Cells were used 4-7 days after plating. Tissue culture materials were from Gibco. Porcine brain endothelial cells were isolated and grown by modifications of a previously published procedure (Rubin et al., 1991). Brain capillary fragments were plated on dishes coated with rat tail collagen and human fibronectin. The cultures were fed every other day with growth medium composed of 50% astrocyte-conditioned medium and 50% Dulbecco's Modified Eagle Medium containing 10% plasma-derived serum, 125 μg/ml heparin, antibiotics and glutamine. They were incubated in a humidified atmosphere of 10% CO2 at 37° C. When the endothelial cells were approximately 50% confluent (after 4-6 days in culture), they were trypsinized and plated onto collagen-coated polycarbonate Transwell filters (6.5 mm diameter, 0.4 μm pore size, tissue culture treated, Costar Corp, Cambridge, Mass., U.S.A.) in the same medium (250 μl apically, 750 μl basolaterally). After 2-3 days on filters, the medium was switched to a 1:1 mixture of astrocyte-conditioned medium and a Dulbecco's Modified Eagle Medium-based, chemically defined medium (‘N2’, Rubin et al., 1991; Bottenstein and Sato, 1979). The final concentration of plasma-derived serum was 5%. Human umbilical vein endothelial cells were from Clonetics.
(§2) Whole cell lysates were prepared by rapidly replacing the culture medium in 6.5 mm with hot Laemmli sample buffer, followed by heating at 100° C. for 5 minutes. Immunoprecipitations were carried out at 4° C. Confluent monolayers of cells were washed rapidly with ice cold PBS (containing 0.9 mM CaCl2 and 0.5 mM MgCl2) before addition of 0.5 ml of the appropriate buffer. The filters were then gently scraped, and the lysate was removed and centrifuged at 14000× g. The supernatant was precleared with 10% (w/v) protein A-Sepharose in lysis buffer for 30-60 minutes. Appropriate primary antibodies were added to the lysate, and after 2-3 hours the immunecomplex was isolated, using rabbit anti-mouse secondary antibodies (Jackson Immunoresearch Labs Inc., West Grove, Pa.) and protein A-Sepharose. The beads were washed fives times with lysis buffer, and the bound protein was solubilized in SDS-sample buffer, followed by heating at 100° C. for 5 minutes.
Cell extracts or immunoprecipitates in SDS sample buffer were resolved by SDS-PAGE. […]

p100/p120 [3] = test: as above; format: cell-based
p100/p120 [4] = test: p100/p120 electrophoretic mobility, human umbilical vein endothelial cells (HUVECs); format: cell-based; conditions: HUVEC; for mobility of p100 and p120, blocker alone: 10 μM blocker alone
Experimental: (§3) Cells were treated with or without 200 nM PDB for 30 minutes, lysed into Laemmli sample buffer, separated by electrophoresis and analysed by immunoblotting with antibodies recognising p100 and p120.
Human umbilical vein endothelial cells were incubated with histamine (His), pyrilamine (Pyr) or cimetidine (Cim) alone or in combination. As indicated, cells were preincubated in the absence or presence of cimetidine (10 μM) or pyrilamine (10 μM) for 10 minutes and then treated with or without histamine (10 μM) for a further 10 minutes. The cells were extracted and protein analysed by gel electrophoresis and immunoblotting. […] In the following examples, increase mobility of p100/p120 means decreased phosphorylation.
as §2
Cell extracts or immunoprecipitates in SDS sample buffer were resolved by SDS-PAGE. The slab gels were then equilibrated in buffer comprising; 48 mM Tris, 39 mM glycine, 20% methanol and 0.03% SDS. Proteins were transferred to nitrocellulose filters (Hybond ECL; Amersham), which were Ponceau S stained and then blocked for 2 hours at 37° C. with 1% BSA in PBS containing 0.05% Tween-20. Filters were then probed with p120 antibody, at a dilution of 1:2500. After washing, filters were incubated with horseradish peroxidase conjugated anti-mouse antibody (Amersham), at a dilution of 1:5000. The filters were then extensively washed in PBS/0.5% Tween-20, and immunoreactive bands were detected by enhanced chemiluminescence (Amersham) following the manufacturers instructions.

[5] = tested on: pig brain endothelial cell tight junctions; test: transcellular electrical resistance (TER) of pig brain endothelial cell cultures; format: cell-based
Experimental: After 2 minutes the Transwells were returned to control medium and transcellular electrical resistance measurements were taken every minute for the following 18 minutes.
as §1
Transcellular electrical resistance (TER) measurements were taken with a pair of fixed, current-passing, voltage measuring electrodes (World Precision Instruments, Stevenage, Hertfordshire, U.K.). TER values are expressed in Ωcm^2 and were corrected for the resistance of cell-free filters.

[6] = tested on: brain endothelial cells tight junction; conditions: pig brain endothelial cells (Schulze et al.); cited from earlier work
p100/p120 [7] = test: p100/p120 electrophoretic mobility, primary pig brain endothelial cells (PBECs); format: cell-based; conditions: for mobility of p120 and p100: LPA 10 μM
Experimental: as §3, §1
as §2, with “A-Sepharose.” for “A-Sepharose. The beads were washed fives times with lysis buffer, and the bound protein was solubilized in SDS-sample buffer, followed by heating at 100° C. for 5 minutes.”

[8] = tested on: brain endothelial cells tight junction; test: tight junction permeability in pig brain endothelial cells; format: cell-based; conditions: results not shown
[9] = 15 minutes, histamine 10 μM, LPA 10 μM, ATP 100 μM

Molecule: NCCc1c[nH]cn1 [histamine]
- mobility of p120 and p100 (p100/p120 [1]; 5 minutes, histamine 10 μM, PDB 200 nM): increased mobility
- mobility of p100 and p120 (p100/p120 [1]; [9]): increase in the mobility
- mobility of p100 and p120 (p100/p120 [1]; histamine 10 μM, 10 minutes): induced an increased mobility
- mobility of p100 and p120, time course (p100/p120 [1]; histamine, times indicated (FIG. 11)): rapid increase in the mobility

Molecule: Cn1cc(C2=C(c3c4n(c5ccccc35)CCC(CN)C4)C(=O)NC2=O)c2ccccc21 (stereo not shown) [Ro 31-8425]
- block of PDB-induced p100/p120 band shift (p100/p120 [2]): completely abolished

Molecule: CCCC(=O)O[C@@H]1[C@@H](C)[C@@]2(O)[C@@H](C=C(CO)C[C@@]3(O)C(=O)C(C)=C[C@@H]23)[C@@H]2C(C)(C)[C@]12OC(=O)CCC [4α-PDB]
- effect on p100/p120 mobility (p100/p120 [2]; 200 nM 4α-PDB, 30 minutes): no effect

Molecule: CN[C@@H]1C[C@H]2O[C@@](C)([C@@H]1OC)n1c3ccccc3c3c4c(c5c6ccccc6n2c5c31)C(=O)NC4 [staurosporine]
- effect on p100/p120 mobility (p100/p120 [3]; 100 nM staurosporine, 60 minutes): induced a p100/p120 band shift

Molecule: CN/C(=N/CCSCc1nc[nH]c1C)NC#N [cimetidine]
- mobility of p100 and p120, blocker alone (p100/p120 [4]): no effect

Molecule: OC[C@@H](O)[C@@H](O)[C@H](O)[C@H](O)CO [mannitol]
- transcellular electrical resistance ([5]; 0.2-0.4 M mannitol, up to 6 hours): causes a drop
- reversibility of drop in transcellular electrical resistance ([5]; 0.4M or 0.8M mannitol 2 minutes, then control medium 18 minutes): fully reversible
- time at which drop in transcellular electrical resistance is clearly seen ([5]; 0.8M mannitol, recorded over 2 minutes): ≤ 20 s

Molecule: COC[C@@H]([C@H](O)[C@H](O)C(=O)NCC[C@H](C)c1nc(/C=C/C[C@@H]2O[C@]3(C[C@@H](O)[C@@H]2C)O[C@H]([C@H](C[C@H](O)[C@H](C)[C@H](O)[C@H](C)/C=C(C)/C(C)=C/C=C/C(C)=C\C#N)OC)[C@H](OP(=O)(O)O)C3(C)C)co1)N(C)C [calyculin A]
- effect on p100/p120 mobility (p100/p120 [3]; 100 nM calyculin A, 60 minutes): upward band shift

Molecule: OC[C@@H](O)[C@@H](O)[C@H](O)[C@@H](O)CO [sorbitol]
- transcellular electrical resistance after treatment ([5]; 0.3M sorbitol, 10 minutes, from 677 before treatment): 73 Ωcm^2

Molecule: Nc1ncnc2c1ncn2[C@@H]1O[C@H](COP(=O)(O)OP(=O)(O)OP(=O)(O)O)[C@@H](O)[C@H]1O [ATP]
- mobility of p100 and p120 (p100/p120 [1]; [9]): increase in the mobility

Molecule: COc1ccc(CN(CCN(C)C)c2ccccn2)cc1 [pyrilamine]
- mobility of p100 and p120, blocker alone (p100/p120 [4]): no effect
- block of histamine effect on p100/p120 mobility (p100/p120 [4]; 10 μM preincubation 10 minutes, then histamine 10 μM 10 minutes): blocked the histamine effect

Molecule: CCCOc1ccc2c(c1)c1c3c(c4c5ccccc5n5c4c1n2[C@H]1C[C@](O)(C(=O)OC)[C@]5(C)O1)CNC3=O [KT 5926]
- effect on p100/p120 mobility (p100/p120 [3]; 1 μM KT 5926): also induced a p100/p120 band shift

Molecule: CN1C(=O)C(c2c[nH]c3ccccc23)=C(c2c[nH]c3ccccc23)C1=O [bisindolylmaleimide V]
- reversal of PDB-induced p100/p120 band shift (p100/p120 [2]): did not reverse
- block of PDB-induced p100/p120 band shift (p100/p120 [2]): unable to block

Molecule: lysophosphatidic acid [LPA]
- tight junction permeability [6]: increases tight junction permeability
- mobility of p120 and p100 (p100/p120 [7]; pig brain endothelial cells, 30 minutes): increased mobility
- mobility of p120 and p100 (p100/p120 [7]; pig brain endothelial cells, 70 minutes): increased mobility
- onset of LPA effect on p100/p120 (p100/p120 [7]; pig brain endothelial cells, further experiments): within a few minutes
- mobility of p100 and p120 (p100/p120 [1]; [9]): increase in the mobility

Molecule: CCCCCCCC(=O)OCC(CO)OC(=O)CCCCCCC (stereo not shown) [DiC8, 1,2-dioctanoylglycerol]
- effect on p100/p120 mobility (p100/p120 [3]; 0.5 mM DiC8, 10 minutes): induces a p100/p120 mobility shift

Molecule: C=C1[C@@H](O)[C@@H]2O[C@]3(CC[C@H](/C=C/[C@@H](C)[C@@H]4CC(C)=C[C@@]5(O[C@H](C[C@@](C)(O)C(=O)O)CC[C@H]5O)O4)O3)CC[C@H]2O[C@@H]1[C@@H](O)C[C@H](C)[C@H]1O[C@@]2(CCCCO2)CC[C@H]1C [okadaic acid]
- effect on p100/p120 mobility (p100/p120 [3]; 1 μM okadaic acid, 60 minutes): upward band shift

Molecule: CN(C)CCCn1cc(C2=C(c3c[nH]c4ccccc34)C(=O)NC2=O)c2ccccc21 [bisindolylmaleimide I]
- block of LPA-induced increase in tight junction permeability [8]: did not block
- reversal of PDB-induced p100/p120 band shift (p100/p120 [2]): can be reversed
- block of PDB-induced p100/p120 band shift (p100/p120 [2]): completely abolished
- prevention of sorbitol-induced increase in p100/p120 mobility (p100/p120 [7]; 2.5 μM bisindolylmaleimide 5 minutes pretreatment, then 0.3M sorbitol): not prevented
- block of LPA-induced p100/p120 mobility increase (p100/p120 [7]; bisindolylmaleimide 2.5 μM preincubation 10 minutes, then LPA 10 μM 70 minutes): not blocked
- transcellular electrical resistance after sorbitol following bisindolylmaleimide pre-incubation ([5]; 2.5 μM bisindolylmaleimide pre-incubation, then 0.3M sorbitol 10 minutes, from 643 before treatment): 93 Ωcm^2
- block of phorbol dibutyrate effect on p100/p120 mobility (p100/p120 [1]; bisindolylmaleimide 2 μM preincubation 15 minutes, then PDB 200 nM 5 minutes): blocked
- block of histamine effect on p100/p120 mobility (p100/p120 [1]; bisindolylmaleimide 2 μM preincubation 15 minutes, then histamine 10 μM 5 minutes): not so strongly affected
